Test results taken from patent publication US20220267260A1, “COMPOUNDS CONTAINING A SULFONIC GROUP AS KAT INHIBITORS” (Epizyme, Inc., priority 2016, published 2022).

How the values were obtained:
[1] = biological target: T1, KAT5 (Homo sapiens, UniProt Q92993); experiment: KAT5 enzyme inhibition assay (SAMDI mass spectrometry); format: biochemical; settings: His-TEV-FL KAT5-Flag enzyme construct
T1 construct: His-TEV tag (N, cleaved yes); made in house

[2] = biological target: T2, KAT6A (Homo sapiens, UniProt Q92794); experiment: KAT6A enzyme inhibition assay (SAMDI mass spectrometry); format: biochemical; settings: His-TEV-KAT6A 501-784 enzyme construct
T2 construct: His-TEV tag (N, cleaved yes); made in house
T2 sequence (Q92794 with tags, fused parts or gaps): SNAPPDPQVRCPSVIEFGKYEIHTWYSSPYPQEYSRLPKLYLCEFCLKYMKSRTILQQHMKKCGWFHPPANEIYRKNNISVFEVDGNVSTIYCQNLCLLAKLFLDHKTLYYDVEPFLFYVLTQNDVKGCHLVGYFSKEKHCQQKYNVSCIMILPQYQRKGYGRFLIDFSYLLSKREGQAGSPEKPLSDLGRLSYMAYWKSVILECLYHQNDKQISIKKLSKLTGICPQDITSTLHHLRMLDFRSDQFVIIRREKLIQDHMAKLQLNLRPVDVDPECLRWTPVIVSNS

T1 sequence (Q92993 with tags, fused parts or gaps): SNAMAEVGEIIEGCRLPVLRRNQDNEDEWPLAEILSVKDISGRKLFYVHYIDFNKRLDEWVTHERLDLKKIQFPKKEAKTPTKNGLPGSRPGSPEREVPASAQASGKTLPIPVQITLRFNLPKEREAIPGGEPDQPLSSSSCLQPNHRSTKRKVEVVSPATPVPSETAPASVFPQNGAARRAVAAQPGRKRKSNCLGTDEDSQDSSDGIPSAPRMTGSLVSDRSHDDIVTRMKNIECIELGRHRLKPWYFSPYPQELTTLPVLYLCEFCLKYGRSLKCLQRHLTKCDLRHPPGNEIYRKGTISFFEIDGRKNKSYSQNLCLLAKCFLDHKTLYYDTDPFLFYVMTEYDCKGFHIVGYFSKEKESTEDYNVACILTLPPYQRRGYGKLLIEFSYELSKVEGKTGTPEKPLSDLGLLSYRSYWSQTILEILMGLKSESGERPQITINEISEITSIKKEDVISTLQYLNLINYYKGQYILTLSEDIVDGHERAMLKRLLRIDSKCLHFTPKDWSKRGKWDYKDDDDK

Row | SMILES | IC50 [1] [µM] | IC50 [2] [µM]
1 | Cc1cc(-c2cccc(F)c2)cc(C(=O)NNS(=O)(=O)C2CCOCC2)c1F [Compound I-377] | ≤ 10 | ≤ 10
2 | Cc1cc(-c2cccc(C(=O)N(C)C)c2)cc(C(=O)NNS(=O)(=O)C2CCCCC2)c1F [Compound I-378] | 50 to 100 | > 100
3 | Cc1cc(-c2ccccc2)cc(C(=O)NNS(=O)(=O)CC2CCCN(C(=O)CCN(C)C(=O)OC(C)(C)C)C2)c1F (stereo not shown) [Compound I-379] | ≤ 10 | ≤ 10
4 | Cc1cc(-c2cccc(F)c2F)cc(C(=O)NNS(=O)(=O)CC2CCCCC2)c1F [Compound I-380] | > 100 | 50 to 100
5 | Cc1cc(-c2cccc(F)c2F)cc(C(=O)NNS(=O)(=O)C2CCCCC2)c1F [Compound I-381] | ≤ 10 | 10 to 50
6 | Cc1cc(-c2ccccc2)cc(C(=O)NNS(=O)(=O)C(C)C2CCNCC2)c1F (stereo not shown) [Compound I-382] | 50 to 100 | 50 to 100
7 | Cc1cc(-c2ccccc2)cc(C(=O)NNS(=O)(=O)c2cccc(C(N)=O)c2)c1F [Compound I-383] | ≤ 10 | ≤ 10
8 | Cc1cc(-c2ccc(C(C)C)cc2)cc(C(=O)NNS(=O)(=O)c2ccccc2)c1F [Compound I-384] | > 100 | ≤ 10
9 | Cc1cc(-c2ccccc2)cc(C(=O)NNS(=O)(=O)C(C)C2CCCCC2)c1F (stereo not shown) [Compound I-385] | ≤ 10 | ≤ 10
10 | Cc1cc(-c2cccc(OCCN(C)C)c2)cc(C(=O)NNS(=O)(=O)c2ccccc2)c1F [Compound I-386] | > 100 | 10 to 50
11 | Cc1c(-c2ccccc2)ccc(F)c1C(=O)NCC(=O)NC(Cc1ccccc1)C(C)C (stereo not shown) [Compound I-387] | > 100 | > 100
12 | CC(=O)N1CCC(CS(=O)(=O)NNC(=O)c2cc(-c3cccc(F)c3)cc(C)c2F)CC1 [Compound I-388] | ≤ 10 | ≤ 10
13 | CNCCC(=O)N1CCC(CS(=O)(=O)NNC(=O)c2cc(-c3cccc(F)c3)cc(C)c2F)CC1 [Compound I-389] | 10 to 50 | 10 to 50
14 | O=C(NNS(=O)(=O)C1CCCCC1)c1cc(-c2ccccc2F)cc(Cl)c1F [Compound I-390] | ≤ 10 | ≤ 10
15 | COc1cc(C)c(F)c(C(=O)NNS(=O)(=O)C2CCCCC2)c1 [Compound I-391] | ≤ 10 | > 100
16 | O=C(NNS(=O)(=O)C1CCCCC1)c1cc(-c2cc(F)cc(F)c2)cc(Cl)c1F [Compound I-392] | ≤ 10 | 10 to 50
17 | COc1cc(Cl)c(F)c(C(=O)NNS(=O)(=O)C2CCCCC2)c1 [Compound I-393] | ≤ 10 | > 100
18 | COc1cc(Cl)c(F)c(C(=O)NNS(=O)(=O)CC2CCCCC2)c1 [Compound I-394] | ≤ 10 | 10 to 50
19 | O=C(NNS(=O)(=O)C1CCCCC1)c1cc(-c2cccc(F)c2)cc(Cl)c1F [Compound I-395] | ≤ 10 | ≤ 10
20 | CC(C)(C)OC(=O)N1CCCC(CS(=O)(=O)NNC(=O)c2cc(-c3cccc(F)c3)cc(Cl)c2F)C1 (stereo not shown) [Compound I-396] | ≤ 10 | ≤ 10
21 | O=C(NNS(=O)(=O)CC1CCOCC1)c1cc(-c2cccc(F)c2)cc(Cl)c1F [Compound I-397] | ≤ 10 | ≤ 10
22 | Cc1cc(-c2cccc(F)c2Cl)cc(C(=O)NNS(=O)(=O)CC2CCCCC2)c1F [Compound I-398] | 50 to 100 | 10 to 50

Row | SMILES | IC50 [1] [µM] | IC50 [2] [µM]
23 | Cc1cc(-c2cccc(F)c2Cl)cc(C(=O)NNS(=O)(=O)C2CCCCC2)c1F [Compound I-399] | 50 to 100 | 50 to 100
24 | O=C(NNS(=O)(=O)CC1CCOCC1)c1cc(-c2ccccc2)cc(Cl)c1F [Compound I-400] | ≤ 10 | ≤ 10
25 | CC(C)(C)OC(=O)N1CCCC(CS(=O)(=O)NNC(=O)c2cc(-c3ccccc3)cc(Cl)c2F)C1 (stereo not shown) [Compound I-401] | ≤ 10 | ≤ 10
26 | Cn1cnc2cc(-c3ccccc3)c(F)c(C(=O)NNS(=O)(=O)C3CCCCC3)c21 [Compound I-402] | > 100 | > 100
27 | Cc1cc(-c2cccc(OCCN(C)C)c2)cc(C(=O)NNS(=O)(=O)C2CCCCC2)c1F [Compound I-403] | > 100 | > 100
28 | Cc1cccc(-c2cc(Cl)c(F)c(C(=O)NNS(=O)(=O)C3CCCCC3)c2)c1 [Compound I-404] | 10 to 50 | 10 to 50
29 | CC(C)(C)OC(=O)N1CCC(S(=O)(=O)NNC(=O)c2cc(Cl)cc(Cl)c2F)CC1 [Compound I-405] | 10 to 50 | > 100
30 | O=C(NNS(=O)(=O)C1CCNCC1)c1cc(Cl)cc(Cl)c1F [Compound I-406] | > 100 | > 100
31 | CN1CCC(c2ccc(F)c(C(=O)NNS(=O)(=O)C3CCCCC3)c2)C1 (stereo not shown) [Compound I-407] | > 100 | > 100
32 | COCCN1CCCC(CS(=O)(=O)NNC(=O)c2cc(-c3cccc(F)c3)cc(C)c2F)C1 (stereo not shown) [Compound I-408] | ≤ 10 | 10 to 50
33 | Cc1cc(-c2ccccc2)cc(C(=O)NNS(=O)(=O)CC2CCCN(C(=O)CCN(C)C)C2)c1F (stereo not shown) [Compound I-409] | 10 to 50 | 10 to 50
34 | O=C(NNS(=O)(=O)CC1CCCNC1)c1cc(-c2ccccc2)cc(Cl)c1F (stereo not shown) [Compound I-410] | 10 to 50 | 10 to 50
35 | O=C(NNS(=O)(=O)CC1CCCCC1)c1cc(Cl)cc(Cl)c1F [Compound I-411] | ≤ 10 | 10 to 50
36 | O=C(NNS(=O)(=O)CC1CCOCC1)c1cc(Cl)cc(Cl)c1F [Compound I-412] | 10 to 50 | > 100
37 | O=C(NNS(=O)(=O)C1CCCCC1)c1cc(Cl)cc(Cl)c1F [Compound I-413] | 10 to 50 | > 100
38 | O=C(NNS(=O)(=O)C1CCOCC1)c1cc(Cl)cc(Cl)c1F [Compound I-414] | > 100 | > 100
39 | CNC(=O)c1cccc(-c2cc(C)c(F)c(C(=O)NNS(=O)(=O)c3ccccc3)c2)c1 [Compound I-415] | 10 to 50 | ≤ 10
40 | O=C(NNS(=O)(=O)CC1CCCNC1)c1cc(-c2cccc(F)c2)cc(Cl)c1F (stereo not shown) [Compound I-416] | 50 to 100 | 50 to 100
41 | O=C(NNS(=O)(=O)CC1CCCN(C(=O)C2CCC2)C1)c1cc(-c2cccc(F)c2)cc(Cl)c1F (stereo not shown) [Compound I-417] | ≤ 10 | ≤ 10
42 | COCC(=O)N1CCCC(CS(=O)(=O)NNC(=O)c2cc(-c3cccc(F)c3)cc(Cl)c2F)C1 (stereo not shown) [Compound I-418] | ≤ 10 | ≤ 10
43 | O=C(NNS(=O)(=O)CC1CCCN(C(=O)C2CCOCC2)C1)c1cc(-c2ccccc2)cc(Cl)c1F (stereo not shown) [Compound I-419] | ≤ 10 | ≤ 10
44 | CCc1cc(Cl)c(F)c(C(=O)NNS(=O)(=O)C2CCCCC2)c1 [Compound I-420] | 10 to 50 | > 100

Row | SMILES | IC50 [1] [µM] | IC50 [2] [µM]
45 | CCc1cc(Cl)c(F)c(C(=O)NNS(=O)(=O)CC2CCCCC2)c1 [Compound I-421] | ≤ 10 | 10 to 50
46 | CCc1cc(Cl)c(F)c(C(=O)NNS(=O)(=O)C2CCOCC2)c1 [Compound I-422] | > 100 | > 100
47 | CCc1cc(Cl)c(F)c(C(=O)NNS(=O)(=O)CC2CCOCC2)c1 [Compound I-423] | 10 to 50 | > 100
48 | Cc1cc(-c2ccccc2)cc(C(=O)NNS(=O)(=O)CC2CN(C(=O)OC(C)(C)C)CCO2)c1F (stereo not shown) [Compound I-424] | ≤ 10 | ≤ 10
49 | Cc1cc(-c2cccc(F)c2)cc(C(=O)NNS(=O)(=O)CC2CN(C(=O)OC(C)(C)C)CCO2)c1F (stereo not shown) [Compound I-425] | ≤ 10 | ≤ 10
50 | Cc1cc(-c2ccccc2)cc(C(=O)NNS(=O)(=O)CC2CNCCO2)c1F (stereo not shown) [Compound I-426] | 10 to 50 | ≤ 10
51 | CC(=O)N1CCOC(CS(=O)(=O)NNC(=O)c2cc(-c3ccccc3)cc(C)c2F)C1 (stereo not shown) [Compound I-427] | ≤ 10 | ≤ 10
52 | Cc1cc(-c2cccc(F)c2)cc(C(=O)NNS(=O)(=O)CC2CNCCO2)c1F (stereo not shown) [Compound I-428] | 10 to 50 | ≤ 10
53 | CC(=O)N1CCOC(CS(=O)(=O)NNC(=O)c2cc(-c3cccc(F)c3)cc(C)c2F)C1 (stereo not shown) [Compound I-429] | ≤ 10 | ≤ 10
54 | COc1cc(Cl)c(F)c(C(=O)NNS(=O)(=O)C2CCOCC2)c1 [Compound I-430] | 50 to 100 | > 100
55 | COc1cc(Cl)c(F)c(C(=O)NNS(=O)(=O)CC2CCOCC2)c1 [Compound I-431] | 10 to 50 | 50 to 100
56 | Cc1cc(-c2cccc(F)c2)cc(C(=O)NNS(=O)(=O)CC2CCN(C(=O)CCN(C)C)CC2)c1F [Compound I-432] | 10 to 50 | 10 to 50
57 | CNC(=O)c1cccc(-c2cc(C)c(F)c(C(=O)NNS(=O)(=O)CC3CCCCC3)c2)c1 [Compound I-433] | ≤ 10 | 10 to 50
58 | CN(C)C(=O)c1cc(Cl)c(F)c(C(=O)NNS(=O)(=O)C2CCOCC2)c1 [Compound I-434] | > 100 | > 100
59 | CC(=O)N1CCC(S(=O)(=O)NNC(=O)c2cc(Cl)cc(Cl)c2F)CC1 [Compound I-435] | > 100 | > 100
60 | O=C(NNS(=O)(=O)C1CCN(C(=O)C2CCC2)CC1)c1cc(Cl)cc(Cl)c1F [Compound I-436] | 50 to 100 | > 100
61 | COCc1cc(Cl)c(F)c(C(=O)NNS(=O)(=O)CC2CCCCC2)c1 [Compound I-437] | ≤ 10 | ≤ 10
62 | Cc1cc(-c2cccc(F)c2)cc(C(=O)NNS(=O)(=O)C2CCOC2)c1F (stereo not shown) [Compound I-438] | 10 to 50 | 10 to 50
63 | O=C(NNS(=O)(=O)C1CCOCC1)c1cc(C(=O)N2CCOCC2)cc(Cl)c1F [Compound I-439] | > 100 | > 100
64 | O=C(NNS(=O)(=O)C1CCOCC1)c1cc(Cn2ccnc2)cc(Cl)c1F [Compound I-440] | > 100 | > 100
65 | Cn1cnc2cc(-c3ccccc3)cc(C(=O)NNS(=O)(=O)C3CCCCC3)c21 [Compound I-441] | > 100 | > 100
